Source: the NIST ThermoML archive (doi:10.1016/j.jct.2006.09.007)
Values joined by “and” are separate entries in the source; they are usually repeats but may differ in a detail not shown here. Identical values can stand only once.

How the values were obtained:
[1] = xn = mol fraction of the nth substance listed; conditions: 101.3 kPa, Liquid
[2] = molar heat capacity at constant pressure; conditions: 298.15 K; 101.33 kPa; Liquid; Flow calorimetry
[3] = 101.3 kPa, Liquid

CC(C)c1ccccc1 [isopropylbenzene] + N#Cc1ccccc1
[1], 298.15 K, Flow calorimetry
Conditions	excess molar heat capacity [J/K/mol]
x2 = 0.0812	1.087
x2 = 0.1147	1.448
x2 = 0.2052	2.23
x2 = 0.3131	2.763
x2 = 0.3691	2.935
x2 = 0.4488	2.929
x2 = 0.5194	2.919
x2 = 0.6256	2.511
x2 = 0.6997	2.226
x2 = 0.8003	1.545
x2 = 0.9038	0.825
x2 = 0.9407	0.527

mass density [kg/m3], [1]
Conditions	298.15 K	308.15 K
x2 = 0	857.41	848.26
x2 = 0.0581	864.33	855.15
x2 = 0.0865	867.75	858.59
x2 = 0.2036	882.15	872.93
x2 = 0.2835	892.28	883.09
x2 = 0.3445	900.22	891.02
x2 = 0.3887	906.07	896.85
x2 = 0.4445	913.59	904.41
x2 = 0.5627	930.2	920.94
x2 = 0.6557	943.85	934.41
x2 = 0.7271	954.72	945.3
x2 = 0.8102	967.92	958.51
x2 = 0.9017	983.11	973.75

Cc1ccccc1C [1,2-dimethylbenzene] + N#Cc1ccccc1
[1], x2 = 0
Conditions	mass density [kg/m3]
298.15 K	875.55
308.15 K	866.29

Cc1cccc(C)c1 [1,3-dimethylbenzene] + N#Cc1ccccc1
[1], x2 = 0
Conditions	mass density [kg/m3]
298.15 K	859.68
308.15 K	850.01

Cc1ccc(C)c(C)c1 [1,2,4-trimethylbenzene] + N#Cc1ccccc1
[1], x2 = 0
Conditions	mass density [kg/m3]
298.15 K	871.56
308.15 K	862.53

CCc1ccccc1 [ethylbenzene]
Conditions	molar heat capacity at constant pressure [J/K/mol]
[2]	185.44

[3]
Conditions	mass density [kg/m3]
298.15 K	862.41
308.15 K	852.72

Cc1cc(C)cc(C)c1 [1,3,5-trimethylbenzene]
Conditions	molar heat capacity at constant pressure [J/K/mol]
[2]	207.43

[3]
Conditions	mass density [kg/m3]
298.15 K	860.9
308.15 K	851.88

N#Cc1ccccc1 [benzonitrile] + Cc1cccc(C)c1
[1], 298.15 K, Flow calorimetry
Conditions	excess molar heat capacity [J/K/mol]
x1 = 0.0568	0.522
x1 = 0.0772	0.686
x1 = 0.1671	1.299
x1 = 0.2404	1.53
x1 = 0.3272	1.727
x1 = 0.4115	1.696
x1 = 0.4878	1.66
x1 = 0.5753	1.415
x1 = 0.6422	1.272
x1 = 0.7301	0.936
x1 = 0.8157	0.683
x1 = 0.887	0.377
x1 = 0.9334	0.254

mass density [kg/m3], [1]
Conditions	x1 = 0.0741	x1 = 0.1804	x1 = 0.316	x1 = 0.4608	x1 = 0.5438	x1 = 0.6475	x1 = 0.74	x1 = 0.8816	x1 = 0.899	x1 = 1
298.15 K	869.26	883.15	901.15	920.81	932.33	947.01	960.47	981.74	984.42	1000.25
308.15 K	859.61	873.5	891.52	911.17	922.69	937.4	950.87	972.18	974.85	990.67

N#Cc1ccccc1 [benzonitrile] + Cc1ccc(C)c(C)c1
[1]
Conditions	excess molar heat capacity, 298.15 K	mass density, 298.15 K [kg/m3]	mass density, 308.15 K [kg/m3]
x1 = 0.0712	–	879.01	–
x1 = 0.0829	0.643 J/K/mol	–	–
x1 = 0.1322	–	885.6	876.48
x1 = 0.1409	0.998 J/K/mol and 0.981 J/K/mol	–	–
x1 = 0.1765	–	890.46	881.29
x1 = 0.2844	1.571 J/K/mol and 1.511 J/K/mol	–	–
x1 = 0.2874	–	902.94	893.72
x1 = 0.3441	–	909.49	900.27
x1 = 0.377	1.621 J/K/mol	–	–
x1 = 0.3967	–	915.71	906.56
x1 = 0.445	–	921.57	912.35
x1 = 0.4558	1.622 J/K/mol	–	–
x1 = 0.5283	–	932.03	922.7
x1 = 0.5359	1.475 J/K/mol	–	–
x1 = 0.5861	–	939.54	930.13
x1 = 0.6329	–	945.69	936.31
x1 = 0.6367	1.241 J/K/mol	–	–
x1 = 0.6879	–	953.12	943.75
x1 = 0.6974	1.021 J/K/mol	–	–
x1 = 0.7772	0.753 J/K/mol	–	–
x1 = 0.7796	–	966.07	956.62
x1 = 0.7804	–	966.21	956.8
x1 = 0.8187	–	971.88	962.37
x1 = 0.9027	–	984.6	975.04
x1 = 0.9039	0.294 J/K/mol	–	–
x1 = 0.9079	–	985.41	975.88
x1 = 0.9431	0.176 J/K/mol	–	–
x1 = 0.9687	–	995.12	–
x1 = 0.9822	–	997.27	–
x1 = 1	–	1000.25	990.67

N#Cc1ccccc1 [benzonitrile] + CCc1ccccc1
[1]
Conditions	excess molar heat capacity, 298.15 K [J/K/mol]	mass density, 298.15 K [kg/m3]	mass density, 308.15 K [kg/m3]
x1 = 0.0616	–	870.36	860.67
x1 = 0.0673	–	871.08	861.35
x1 = 0.0699	0.77	–	–
x1 = 0.1221	1.239	–	–
x1 = 0.1384	–	880.39	870.62
x1 = 0.219	1.824	–	–
x1 = 0.2367	–	893.17	883.4
x1 = 0.3021	2.096	–	–
x1 = 0.3478	2.184	–	–
x1 = 0.3726	–	911.19	901.43
x1 = 0.4424	2.181	–	–
x1 = 0.4563	–	922.38	912.65
x1 = 0.4991	–	928.14	918.47
x1 = 0.5151	2.098	–	–
x1 = 0.5903	–	940.59	931
x1 = 0.5925	1.917	–	–
x1 = 0.6379	1.786	–	–
x1 = 0.6935	–	955	945.46
x1 = 0.7404	1.395	–	–
x1 = 0.7801	–	967.39	957.85
x1 = 0.8033	1.119	–	–
x1 = 0.8857	0.666	–	–
x1 = 0.8862	–	983.01	973.45
x1 = 0.947	0.33	–	–
x1 = 0.9502	–	992.6	983.07
x1 = 1	–	1000.25	990.67

N#Cc1ccccc1 [benzonitrile] + CC(C)c1ccccc1
[1], x1 = 1
Conditions	mass density [kg/m3]
298.15 K	1000.25
308.15 K	990.67

CCc1ccccc1 [ethylbenzene] + N#Cc1ccccc1
[1], x2 = 0
Conditions	mass density [kg/m3]
298.15 K	862.41
308.15 K	852.72

Cc1cc(C)cc(C)c1 [1,3,5-trimethylbenzene] + N#Cc1ccccc1
[1], x2 = 0
Conditions	mass density [kg/m3]
298.15 K	860.9
308.15 K	851.88

COc1ccccc1 [anisole] + N#Cc1ccccc1
[1], x2 = 0
Conditions	mass density [kg/m3]
298.15 K	988.98
308.15 K	978.7

Cc1ccc(C)cc1 [1,4-dimethylbenzene]
Conditions	molar heat capacity at constant pressure [J/K/mol]
[2]	181.73

[3]
Conditions	mass density [kg/m3]
298.15 K	856.48
308.15 K	846.98

Cc1ccccc1C [1,2-dimethylbenzene]
Conditions	molar heat capacity at constant pressure [J/K/mol]
[2]	187.28

[3]
Conditions	mass density [kg/m3]
298.15 K	875.55
308.15 K	866.29

N#Cc1ccccc1 [benzonitrile]
Conditions	molar heat capacity at constant pressure [J/K/mol]
[2]	166.41

[3]
Conditions	mass density [kg/m3]
298.15 K	1000.25
308.15 K	990.67
